Assays:
Format in all cases: in vivo
Aspergillus flavus [1] = assay: Aspergillus flavus pulmonary infection model in compromised mice, oral treatment; conditions: for %SURVIVAL / CFU-GEO MEAN OF SURVIVORS / %ANIMALS NEG: 18 days post infection; for %SURVIVAL: compromised CF-1 mice; for CFU-GEO MEAN OF SURVIVORS: geometric mean of the logarithm of CFU remaining in the lung; for %ANIMALS NEG: negative = <10 colonies
Aspergillus flavus [2] = assay: as above; conditions: for %SURVIVAL / %ANIMALS NEG: 18 days post infection; for %SURVIVAL: compromised CF-1 mice; for %ANIMALS NEG: negative = <10 colonies
Source text: The in vivo oral antifungal activity of the compounds of Example 23-26 were compared to those of itraconazole, fluconazole and saperconazole in an Aspergillus pulmonary infection model in mice. The procedure of David Loebenberg et al. entitled "Sch 42427, The Active Enantiomer of Antifungal agent Sch 39304: In Vitro and In Vivo Activity" Antimicrobial Agents and Chemotherapy (1992), 36 498-501 was used. The Aspergillus flavus pulmonary model was run in the following manner Male, CF-1 mice weighing 20 grams were compromised with cortisone acetate (100 mg/kg), administered subcutaneously, once daily for 3 days. In addition, to prevent bacterial disease, tetracycline HCL (300 mg/1) was added to the drinking water and given ad libitum. On day 2 of compromising, mice were infected in an inhalation chamber, first described by Piggot and Emmons in 1960 and modified by us. The chamber is a 1 liter pyrex, thick-walled flask with 8 tubular side-arms that extend into the flask. Each side-arm is a pyrex tube of 14 cm length, constricted to a 1 cm opening inside the flask. The bottom of the flask was covered with a malt extract agar medium on which a sporulating culture of A. flavus ATCC 24133 was grown for 13 days at room temperature. The top of the flask was closed with a #10 stopper through which passed a glass tube attached by rubber tubing to a 60 mL syringe. Mice were placed in each of the side arms and pushed to the bottoms so that their nares extended beyond the open end of the tube and over the agar. Cotton plugs were then inserted behind the mice to hold them in place. By pumping the 60 mL syringe twice, air was forced over the culture and produced a cloud of spores. Mice were exposed to the spore cloud for one minute. Within 15-30 minutes after exposure, a number of mice were sacrificed and lung tissue samples homogenized for culture to determine the number of inhaled conidia. Oral treatment began 24 h post-infection with doses of 5 to 250 mg of drug/kg in ethanol; vehicle (115 ml of Emulphor EL-719P, GAF, Wayne, NJ; and 5 ml of 20% w/v lactic acid per liter of water), 10:90 v/v, once daily for 4 days.
The procedure of Example 31 was used to compare the in vivo oral antifungal activity of (±)-5R/S-(cis)-4-[4-[4-[4-[[5-(2,4-difluorophenyl)-5-(1H-1,2,4-triazol-1-ylmethyl) tetrahydrofuran-3-yl]methoxy-phenyl-1-piperazinyl]phenyl]-2,4-dihydro-2[(R/S)-(1-methylpropyl)]-3H-1,2,4-triazol-3-one with (±)-2R/S-(cis)-1-[4-[[2-(2,4-difluorophenyl)-2-(1H-1,2,4-triazol-1-ylmethyl) tetrahydro-4-furanyl]methoxy]phenyl]-4-(1-methylethyl)piperazine of Example 68 of USP 5,039,676 in an Aspergillus pulmonary infection model described in Example 31. […]
The procedures of Examples 31 and 34 were used.

C. albicans C-43 = assay: Candida systemic model in CF1 mice infected IV with C. albicans C-43, oral treatment; conditions: for %SURVIVAL: day 4 post-infection; for CFUs (GM): day 4, geometric mean of the logarithms of CFU remaining in the kidneys (dead mice counted as 10^9)
Experimental: The compounds of Examples 23-26 and itraconazole, fluconazole, and saperconazole were tested for in vivo oral antifungal activity in a Candida systemic model using CF1 male mice , average weight 20 g, Harlan Sprague Dawley, Inc., Indianapolis, Ind. infected by IV injection into the tail vein of C. albicans C-43 (5 million CFUs). […] Oral efficacy was measured after four (4) days by percent survival and by the number of organisms remaining in the kidneys i.e., the Colony Forming Units (CFUs). The mice were sacrificed and the kidneys of individual mice were homogenized in sterile saline, diluted and spread onto Mycosel agar. Colony counts were determined after 48 hours at 37°C. For calculation of geometric means, mice that died during the experiment were considered to have 10^9 CFUs/kidneys (based on numerous previous experiments).

[3] = 33 mg/kg PO [3RX/DAY] for 4 days
[4] = 100 mg/kg PO once a day for 4 days
[5] = 33 mg/kg PO once a day for 4 days
[6] = 66 mg/kg PO once a day for 4 days
[7] = 1 MPK PO in PEG-200, 1 a day x 4 days
[8] = 10 MPK PO in PEG-200, 1 a day x 4 days
[9] = 25 MPK PO in PEG-200, 1 a day x 4 days
[10] = 50 MPK PO in PEG-200, 1 a day x 4 days

Row | SMILES | %SURVIVAL (Aspergillus flavus [1]; [3]) [%] | CFU-GEO MEAN OF SURVIVORS (Aspergillus flavus [1]; [3]) | %ANIMALS NEG (Aspergillus flavus [1]; [3]) [%] | CFU-GEO MEAN OF SURVIVORS (Aspergillus flavus [1]; [4]) | %SURVIVAL (Aspergillus flavus [2]; [5]) [%] | %ANIMALS NEG (Aspergillus flavus [2]; [5]) [%] | %SURVIVAL (Aspergillus flavus [2]; [6]) [%] | %ANIMALS NEG (Aspergillus flavus [2]; [6]) [%] | %SURVIVAL (Aspergillus flavus [2]; [4]) [%] | %ANIMALS NEG (Aspergillus flavus [2]; [4]) [%] | %SURVIVAL (C. albicans C-43; [7]) [%] | CFUs (GM) (C. albicans C-43; 1 MPK PO in PEG-200) | %SURVIVAL (C. albicans C-43; [8]) [%] | CFUs (GM) (C. albicans C-43; 10 MPK PO in PEG-200) | %SURVIVAL (C. albicans C-43; [9]) [%] | CFUs (GM) (C. albicans C-43; 25 MPK PO in PEG-200) | %SURVIVAL (C. albicans C-43; [10]) [%] | CFUs (GM) (C. albicans C-43; 50 MPK PO in PEG-200) | also measured
1 | CC[C@@H](C)n1ncn(-c2ccc(N3CCN(c4ccc(OC[C@@H]5CO[C@@](Cn6cncn6)(c6ccc(F)cc6F)C5)cc4)CC3)cc2)c1=O [Example 23] | 60 | 1.08 | 10 | 1.85 | 10 | 0 | 10 | 0 | 70 | 10 | 10 | 8.57 | 50 | 6.78 | 80 | 5.90 | 90 | 5.62 | –
2 | CC[C@H](C)n1ncn(-c2ccc(N3CCN(c4ccc(OC[C@@H]5CO[C@@](Cn6cncn6)(c6ccc(F)cc6F)C5)cc4)CC3)cc2)c1=O [Example 24, (-)-[(5R)-cis]-4-[4-[4-[4-[[5-(2,4-Difluorophenyl)-5-(1H-1,2,4-triazol-1-ylmethyl)tetrahydrofuran-3-yl]methoxy]phenyl]-1-piperazinyl]phenyl]-2,4-dihydro-2-[(1S)-(1-methylpropyl)]-3H-1,2,4-triazol-3-one] | 40 | 2.4 | 0 | 1.95 | 0 | 0 | 50 | 0 | 100 | 20 | 30 | 7.88 | 40 | 7.42 | 100 | 5.14 | 100 | 4.99 | CFU-GEO MEAN OF SURVIVORS (Aspergillus flavus [1]; [6]): 2.25; oral activity in the Aspergillus pulmonary mouse model (Aspergillus flavus [2]; PO, result in words (active / inactive)): exhibit oral activity; oral activity against Aspergillus flavus pulmonary infections compared with itraconazole, fluconazole and saperconazole (Aspergillus flavus [2]; in vivo mouse model, PO, result in words): more active orally; oral activity in the Candida systemic model compared with itraconazole (C. albicans C-43; doses of 50, 25 and 10 mpk, each dissolved in PEG-200, result in words): more active orally
3 | CCC(C)n1ncn(-c2ccc(N3CCN(c4ccc(OCC5COC(Cn6cncn6)(c6ccc(Cl)cc6Cl)O5)cc4)CC3)cc2)c1=O (stereo not shown) [Itraconazole, reference compound] | 10 | – | 0 | – | – | 0 | – | 0 | 20 | 0 | – | – | 0 | 9.00 | 0 | 9.00 | 60 | 6.68 | %SURVIVAL (Aspergillus flavus [1]; [5]): 0%; %SURVIVAL (Aspergillus flavus [1]; [6]): 0%; PERCENT SURVIVAL AFTER 5 DAYS (5D) (Aspergillus flavus [1]; head prints 50 mg/kg (third dose column, c3), in PEG-200 daily for 4 days, CF-1 mice): 17
